Laboratory results as given in patent publication US20090209460A1, “COMPOSITIONS AND METHODS FOR TREATING OBESITY AND RELATED METABOLIC DISORDERS” (Amylin Pharmaceuticals, Inc., priority 2005, published 2009).
Non-standard residues stand in square brackets, D forms with d. Residues, ends and D or L forms follow the SMILES beside them. No end group written: not given here. beta turn mimic B = not defined here

Legend:
[1] = test system: mice with diet induced obesity (mouse DIO); experiment: cumulative food intake in mouse DIO after IP injection (FIGS. 6 and 7); type: in vivo; conditions: injected IP at t=0; measured at 30, 60, 120 and 180 min
Experimental: The activities of the following compounds are shown: A, [MimicB36] FN38; B, [His37] FN38; C,
[His35] FN38; D, [Phe33] FN38; E, [Val33] FN38; F, Des-(Ser6,Lys7,Thr8,Gln9) FN38; G, Des-Val16,Val17-FN38; H, [Phe31] FN38; I, Des-(Val16,Val17,Phe24,Ala25,Ser26,Gln27) FN38; J, Des-(Phe1,Leu2,Phe3,His4)FN38; and K, Des-(Phe24,Ala25,Ser26,Gln27)-FN38. […] Points represent mean±sd of n=4 cages (3 mice/cage). Peptide was injected IP at t=0. Food was introduced immediately after injection and amount consumed measured at t=30, 60, 120, and 180 min. In the figure, * p<0.05 vs. vehicle control; ANOVA, Dunnett's test.

[2] = body weight and food intake in mice with diet induced obesity (mouse DIO), osmotic pump; type: in vivo; conditions: for d 14 BWt loss: day 14
Experimental: The effect of FN38 and related compounds on body weight and food intake in obese subjects was investigated. Mice having diet induced obesity (DIO) were used. All in vivo tests were performed with peripheral injections of peptide. […] 4-week-old male C57BL/6 mice were group housed with water and a standard pelleted mouse chow diet available ad libitum, except as noted, and were maintained on a on a high fat diet (58% kcal from fat) for 4 weeks prior to the experiment. At the end of fattening period, osmotic pumps were implanted interscapularly under anesthesia. Mice received pumps continuously delivering vehicle (50% DMSO in water or saline) or polypeptide at the dose indicated. Food intake and body weight measurements were obtained weekly.

[3] = test system: NIH/Swiss mice; experiment: acute food intake assay, lean overnight-fasted NIH/Swiss mice, intraperitoneal injection; type: in vivo, mouse; conditions: for reduction of food intake: administered systemically (i.p. to mice), dose and time not stated; for FI (60′, 200) / ED50 at t = 60: food intake; for FI (60′, 200): % change relative to control, 60 min; for Food Intake Inhibition: mouse assay, dose of 200 mg/kg, measured at 60 minutes
Experimental: The effect of NMX Peptides, FNX Peptides or NMX Receptor agonists on food intake when systemically administered was investigated using an acute food intake assay. This assay measured food consumption in lean subjects. Lean, group-housed, overnight-fasted NIH/Swiss mice. All in vivo tests were performed with peripheral injections of peptide. […] The dose-response data are presented herein. The protocol is described below. Female NIH/Swiss mice (8-24 weeks old) were group housed with a 12:12 hour light:dark cycle, with lights on at 0300. Water and a standard pelleted mouse chow diet are available ad libitum, except as noted. Animals are fasted starting at approximately 1530 hrs, 1 day prior to experiment. At time=0 min, all animals are given an intraperitoneal injection of vehicle or polypeptide in a volume of 200 uL/mouse and immediately given a pre-weighed amount (10-15 g) of the standard chow. Food is removed and weighed at 30, 60, and 120 minutes to determine the amount of food consumed. The effects of treatment on food intake are expressed as % change relative to control.

[4] = brush border membrane (BBM) stability assay; type: in vitro ADME, human; conditions: for remaining at 5 h: brush border membrane extract (e.g. kidney), percent compound remaining after a 5 hour incubation, human brush border membrane assay, read-out: hBBM
Experimental: Some exemplary NMX Peptides and FNX Peptides were tested for stability in a brush border membrane (BBM) assay as described herein. To determine the enzymatic stability of peptide hormones peptides are incubated with a preparation of human brush border membranes extract (e.g., kidney), and the stability of the peptide is determined by measuring concentration of the intact peptide at specific intervals. The brush border membrane extract contains dipeptidyl peptidase IV (DPP-IV), neutral endopeptidases, peptidyl-dipeptidase A, carboxypeptidases and aminopeptidases. These are the primary enzymes that degrade peptides in vivo and are found in the kidneys, liver, lungs and pancreas. Resistance against these human proteases would increase peptide half-life. In the BBM assay test peptide was subjected to digestion over a period of five (5) hours with human brush border membrane extracts, e.g. kidney, at 37° C. At desired timepoints digestion was stopped by addition of quench solution, typically 50% ACN, 1% FA. After centrifugation to remove membrane debris, supernatant was subjected to mass spectrometry using a selected ion scan for the intact molecule of interest. Values are expressed as a percent of stable. A value of at least 80 or greater is regarded as an extremely stable molecule. A value of at least 70 or greater is a molecule with significant stability.

| Molecule | cumulative food intake in mouse DIO (FIGS. 6A, 6B, 7A, 7B) [1] | d 14 BWt loss ([2]; mouse DIO) [%] | reduction of food intake [3] | FI (60′, 200) [3] [%] | ED50 at t = 60 [3] | Food Intake Inhibition [3] [%] | remaining at 5 h [4] [%] | also measured |
| --- | --- | --- | --- | --- | --- | --- | --- | --- |
| CC(C)C[C@H](NC(=O)[C@H](CCCCN)NC(=O)[C@H](CCC(N)=O)NC(=O)[C@@H](NC(=O)[C@H](CCCCN)NC(=O)[C@H](CO)NC(=O)[C@H](Cc1ccc(O)cc1)NC(=O)[C@H](Cc1c[nH]cn1)NC(=O)[C@H](Cc1ccccc1)NC(=O)[C@H](CC(C)C)NC(=O)[C@@H](N)Cc1ccccc1)[C@@H](C)O)C(=O)NCC(=O)N[C@@H](CCCCN)C(=O)N[C@@H](CO)C(=O)N[C@@H](CC(N)=O)C(=O)N[C@H](C(=O)N[C@H](C(=O)N[C@@H](CCC(=O)O)C(=O)N[C@@H](CCC(=O)O)C(=O)N[C@@H](CC(C)C)C(=O)N[C@@H](CCC(N)=O)C(=O)N[C@@H](CO)C(=O)N1CCC[C@H]1C(=O)N[C@@H](Cc1ccccc1)C(=O)N[C@@H](C)C(=O)N[C@@H](CO)C(=O)N[C@@H](CCC(N)=O)C(=O)N[C@@H](CO)C(=O)N[C@@H](CCCNC(=N)N)C(=O)NCC(=O)N[C@@H](Cc1ccc(O)cc1)C(=O)N[C@@H](Cc1ccccc1)C(=O)N[C@@H](CC(C)C)C(=O)N[C@@H](Cc1ccccc1)C(=O)N[C@@H](CCCNC(=N)N)C(=O)N1CCC[C@H]1C(=O)N[C@@H](Cc1c[nH]cn1)C(=O)N[C@@H](CC(N)=O)C(N)=O)C(C)C)C(C)C [Compound B] (H-FLFHYSKTQKLGKSNVVEELQSPFASQSRGYFLFRPHN-NH2; N-terminus assumed) | either not active or weakly active | – | – | – | – | – | – | – |
| FLFHYSKTQKLGKSNVVEELQSPFASQSRGYFLFR(beta turn mimic B)RN-NH2 (FLFHYSKTQKLGKSNVVEELQSPFASQSRGYFLFR[beta turn mimic B]RN-NH2; reading uncertain) [Compound A] | either not active or weakly active | – | – | – | – | – | – | – |
| CC[C@H](C)[C@H](NC(=O)[C@@H](NC(=O)CNC(=O)CNC(=O)[C@@H]1CCCN1C(=O)[C@@H](NC(=O)[C@H](CCC(N)=O)NC(=O)[C@@H](NC(=O)[C@H](CCC(=O)O)NC(=O)[C@H](CCC(=O)O)NC(=O)[C@H](CC(=O)O)NC(=O)[C@@H](N)CO)C(C)C)C(C)C)C(C)C)C(=O)N[C@@H](CO)C(=O)N[C@@H](CC(N)=O)C(=O)NCC(=O)N[C@@H](Cc1ccc(O)cc1)C(=O)N[C@@H](Cc1ccccc1)C(=O)N[C@@H](CC(C)C)C(=O)N[C@@H](Cc1ccccc1)C(=O)N[C@@H](CCCNC(=N)N)C(=O)N1CCC[C@H]1C(=O)N[C@@H](CCCNC(=N)N)C(=O)N[C@@H](CC(N)=O)C(N)=O [Compound 163452, reference compound] (H-SDEEVQVPGGVISNGYFLFRPRN-NH2; N-terminus assumed) | – | 1.5 | up to 95% | −88 | 0.022 mg/kg | – | – | body weight gain and food intake in the DIO assay ([2]; 75 nmol/kg/day): decreased body weight gain and food intake; long acting effect in mouse DIO ([2]; mouse DIO): did not have a long acting effect; ED50 for effect on food intake ([3]; over 30 min, i.p., mice): 9.0 nmol/kg |
| CC[C@H](C)[C@H](NC(=O)[C@@H](NC(=O)CNC(=O)CNC(=O)[C@@H]1CCCN1C(=O)[C@@H](NC(=O)[C@H](CCC(N)=O)NC(=O)[C@@H](NC(=O)[C@H](CCC(=O)O)NC(=O)[C@H](CCC(=O)O)NC(=O)[C@H](CC(=O)O)NC(=O)[C@H](CO)NC(=O)[C@H](CC(N)=O)NC(=O)[C@H](CO)NC(=O)[C@H](CCCCN)NC(=O)CNC(=O)[C@H](CC(C)C)NC(=O)[C@H](CCCCN)NC(=O)[C@H](CCC(N)=O)NC(=O)[C@@H](NC(=O)[C@H](CCCCN)NC(=O)[C@H](CO)NC(=O)[C@H](Cc1ccc(O)cc1)NC(=O)[C@H](Cc1c[nH]cn1)NC(=O)[C@H](Cc1ccccc1)NC(=O)[C@H](CC(C)C)NC(=O)[C@@H](N)Cc1ccccc1)[C@@H](C)O)C(C)C)C(C)C)C(C)C)C(=O)N[C@@H](CO)C(=O)N[C@@H](CC(N)=O)C(=O)NCC(=O)N[C@@H](Cc1ccc(O)cc1)C(=O)N[C@@H](Cc1ccccc1)C(=O)N[C@@H](CC(C)C)C(=O)N[C@@H](Cc1ccccc1)C(=O)N[C@@H](CCCNC(=N)N)C(=O)N1CCC[C@H]1C(=O)N[C@@H](CCCNC(=N)N)C(=O)N[C@@H](CC(N)=O)C(N)=O [Compound 165063] (H-FLFHYSKTQKLGKSNSDEEVQVPGGVISNGYFLFRPRN-NH2; N-terminus assumed) | – | 8.6 | at least 89% | −88 | 6 nmol/kg | −88 | 73 | d 7 BWt loss ([2]; mouse DIO, day 7): 5.1%; BBM ([4]; percent of stable, human brush border membrane extracts, five hours, 37° C.): 73% |
| CC(C)C[C@H](NC(=O)[C@H](CCCCN)NC(=O)[C@H](CCC(N)=O)NC(=O)[C@@H](NC(=O)[C@H](CCCCN)NC(=O)[C@H](CO)NC(=O)[C@@H](N)Cc1ccc(O)cc1)[C@@H](C)O)C(=O)NCC(=O)N[C@@H](CCCCN)C(=O)N[C@@H](CO)C(=O)N[C@@H](CC(N)=O)C(=O)N[C@H](C(=O)N[C@H](C(=O)N[C@@H](CCC(=O)O)C(=O)N[C@@H](CCC(=O)O)C(=O)N[C@@H](CC(C)C)C(=O)N[C@@H](CCC(N)=O)C(=O)N[C@@H](CO)C(=O)N1CCC[C@H]1C(=O)N[C@@H](Cc1ccccc1)C(=O)N[C@@H](C)C(=O)N[C@@H](CO)C(=O)N[C@@H](CCC(N)=O)C(=O)N[C@@H](CO)C(=O)N[C@@H](CCCNC(=N)N)C(=O)NCC(=O)N[C@@H](Cc1ccc(O)cc1)C(=O)N[C@@H](Cc1ccccc1)C(=O)N[C@@H](CC(C)C)C(=O)N[C@@H](Cc1ccccc1)C(=O)N[C@@H](CCCNC(=N)N)C(=O)N1CCC[C@H]1C(=O)N[C@@H](CCCNC(=N)N)C(=O)N[C@@H](CC(N)=O)C(N)=O)C(C)C)C(C)C [Des-(Phe1,Leu2,Phe3,His4)FN38] (H-YSKTQKLGKSNVVEELQSPFASQSRGYFLFRPRN-NH2; N-terminus assumed) | – | – | – | – | – | −58 | 41 | – |
| CC(C)C[C@H](NC(=O)[C@H](CCCCN)NC(=O)[C@H](Cc1ccc(O)cc1)NC(=O)[C@H](Cc1c[nH]cn1)NC(=O)[C@H](Cc1ccccc1)NC(=O)[C@H](CC(C)C)NC(=O)[C@@H](N)Cc1ccccc1)C(=O)NCC(=O)N[C@@H](CCCCN)C(=O)N[C@@H](CO)C(=O)N[C@@H](CC(N)=O)C(=O)N[C@H](C(=O)N[C@H](C(=O)N[C@@H](CCC(=O)O)C(=O)N[C@@H](CCC(=O)O)C(=O)N[C@@H](CC(C)C)C(=O)N[C@@H](CCC(N)=O)C(=O)N[C@@H](CO)C(=O)N1CCC[C@H]1C(=O)N[C@@H](Cc1ccccc1)C(=O)N[C@@H](C)C(=O)N[C@@H](CO)C(=O)N[C@@H](CCC(N)=O)C(=O)N[C@@H](CO)C(=O)N[C@@H](CCCNC(=N)N)C(=O)NCC(=O)N[C@@H](Cc1ccc(O)cc1)C(=O)N[C@@H](Cc1ccccc1)C(=O)N[C@@H](CC(C)C)C(=O)N[C@@H](Cc1ccccc1)C(=O)N[C@@H](CCCNC(=N)N)C(=O)N1CCC[C@H]1C(=O)N[C@@H](CCCNC(=N)N)C(=O)N[C@@H](CC(N)=O)C(N)=O)C(C)C)C(C)C [Des-(Ser6,Lys7,Thr8,Gln9)FN38] (H-FLFHYKLGKSNVVEELQSPFASQSRGYFLFRPRN-NH2; N-terminus assumed) | – | – | – | – | – | −72 | 28 | – |
